Molecular target: Cdk9/cyclinT1 (Homo sapiens, UniProt P50750)
Experiment: Cdk9/cyclinT1 IMAP protocol (fluorescence polarization)
Conditions: IC-50, CDK9; lower limit of assay 0.0005 micromolar

Sequence of Cdk9/cyclinT1 (P50750 whole entry): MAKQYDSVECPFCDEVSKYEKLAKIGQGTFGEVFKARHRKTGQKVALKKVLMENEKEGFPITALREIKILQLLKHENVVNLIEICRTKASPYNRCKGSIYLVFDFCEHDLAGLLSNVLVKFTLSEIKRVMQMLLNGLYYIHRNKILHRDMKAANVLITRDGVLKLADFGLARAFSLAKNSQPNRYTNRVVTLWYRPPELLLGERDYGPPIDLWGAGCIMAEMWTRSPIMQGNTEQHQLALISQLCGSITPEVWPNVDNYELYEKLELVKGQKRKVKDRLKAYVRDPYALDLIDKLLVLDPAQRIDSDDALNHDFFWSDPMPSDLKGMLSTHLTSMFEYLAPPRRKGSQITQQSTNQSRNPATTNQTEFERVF
Sequence of Cdk9/cyclinT1 (O60563 whole entry partner): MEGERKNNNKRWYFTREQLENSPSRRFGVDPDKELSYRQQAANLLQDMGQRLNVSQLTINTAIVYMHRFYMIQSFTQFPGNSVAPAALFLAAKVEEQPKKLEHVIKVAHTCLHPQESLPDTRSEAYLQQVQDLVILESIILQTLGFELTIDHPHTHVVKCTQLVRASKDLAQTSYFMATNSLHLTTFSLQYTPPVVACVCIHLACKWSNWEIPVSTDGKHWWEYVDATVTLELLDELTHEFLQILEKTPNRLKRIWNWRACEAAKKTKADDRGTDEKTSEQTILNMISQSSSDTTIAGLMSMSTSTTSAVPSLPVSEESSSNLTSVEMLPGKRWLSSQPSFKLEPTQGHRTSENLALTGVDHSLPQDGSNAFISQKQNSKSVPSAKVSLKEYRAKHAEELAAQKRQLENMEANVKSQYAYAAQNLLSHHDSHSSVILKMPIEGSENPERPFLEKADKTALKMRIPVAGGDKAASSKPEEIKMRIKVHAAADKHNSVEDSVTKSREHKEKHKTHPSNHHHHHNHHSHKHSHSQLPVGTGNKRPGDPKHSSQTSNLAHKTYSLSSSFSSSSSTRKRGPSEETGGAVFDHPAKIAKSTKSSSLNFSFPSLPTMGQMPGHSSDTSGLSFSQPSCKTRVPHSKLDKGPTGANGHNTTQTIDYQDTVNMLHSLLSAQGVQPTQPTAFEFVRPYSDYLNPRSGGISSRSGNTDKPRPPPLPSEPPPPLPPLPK

| SMILES | IC50 [pM] |
| --- | --- |
| CN(C)C(=O)CN[C@H]1CC[C@H](Nc2cc(-c3cccc(NCC4(C#N)CCOCC4)n3)c(Cl)cn2)CC1 [Compound 423, 2-((trans-4-((5′-chloro-6-(((4-cyanotetrahydro-2H-pyran-4-yl)methyl)amino)-[2,4′-bipyridin]-2′-yl)amino)cyclohexyl)amino)-N,N-dimethylacetamide] | < 500 |
| CC(C)(CO)N[C@H]1CC[C@H](Nc2cc(-c3cccc(NCC4(C#N)CCOCC4)n3)c(Cl)cn2)CC1 [Compound 453, 4-(((5′-chloro-2′-((trans-4-((1-hydroxy-2-methylpropan-2-yl)amino)cyclohexyl)amino)-[2,4′-bipyridin]-6-yl)amino)methyl)tetrahydro-2H-pyran-4-carbonitrile] | < 500 |
| COCC(C)(C)N[C@H]1CC[C@H](Nc2cc(-c3cccc(NCC4(C#N)CCOCC4)n3)c(Cl)cn2)CC1 [Compound 454, 4-(((5′-chloro-2′-((trans-4-((1-methoxy-2-methylpropan-2-yl)amino)cyclohexyl)amino)-[2,4′-bipyridin]-6-yl)amino)methyl)tetrahydro-2H-pyran-4-carbonitrile] | 2000 |
| N#CCCN[C@H]1CC[C@H](Nc2cc(-c3cccc(NCC4CCOCC4)n3)c(Cl)cn2)CC1 [Compound 444, 3-((trans-4-((5′-chloro-6-(((tetrahydro-2H-pyran-4-yl)methyl)amino)-[2,4′-bipyridin]-2′-yl)amino)cyclohexyl)amino) propanenitrile] | 2400 |
| COCCN[C@@H]1CC[C@@H](Nc2cc(-c3cccc(NCC4(C#N)CCOCC4)n3)c(Cl)cn2)C1 [Compound 409, 4-(((5′-chloro-2′-(((1R,3R)-3-((2-methoxyethyl)amino)cyclopentyl)amino)-[2,4′-bipyridin]-6-yl)amino)methyl)tetrahydro-2H-pyran-4-carbonitrile] | 600 |
| N#CC1(CNc2cccc(-c3cc(N[C@H]4CC[C@@H](N5CCNC(=O)C5)CC4)ncc3Cl)n2)CCOCC1 [Compound 418, 4-(((5′-chloro-2′-((cis-4-(3-oxopiperazin-1-yl)cyclohexyl)amino)-[2,4′-bipyridin]-6-yl)amino)methyl)tetrahydro-2H-pyran-4-carbonitrile] | 8500 |
| COC[C@H](C)N[C@H]1CC[C@H](Nc2cc(-c3ccc(F)c(NCC4(C#N)CCOCC4)n3)c(Cl)cn2)CC1 [Compound 458, 4-(((5′-chloro-5-fluoro-2′-((trans-4-(((S)-1-methoxypropan-2-yl)amino)cyclohexyl)amino)-[2,4′-bipyridin]-6-yl)amino)methyl)tetrahydro-2H-pyran-4-carbonitrile] | < 500 |
| N#CC1(CNc2cccc(-c3cc(NCC4CCOCC4)ncc3Cl)n2)CCOCC1 [Compound 441, 4-(((5′-chloro-2′-(((tetrahydro-2H-pyran-4-yl)methyl)amino)-[2,4′-bipyridin]-6-yl)amino)methyl)tetrahydro-2H-pyran-4-carbonitrile] | 3000 |
| N#CC1(CNc2cccc(-c3cc(N[C@H]4CC[C@H](NCC5(C#N)CC5)CC4)ncc3Cl)n2)CCOCC1 [Compound 414, 4-(((5′-chloro-2′-((trans-4-(((1-cyanocyclopropyl)methyl)amino)cyclohexyl)amino)-[2,4′-bipyridin]-6-yl)amino)methyl)tetrahydro-2H-pyran-4-carbonitrile] | < 500 |
| CO[C@@H]1CC[C@H](Nc2cc(-c3cccc(NCC4(C#N)CCOCC4)n3)c(Cl)cn2)C[C@H]1N [Compound 438, 4-(((2′-(((1S,3R,4R)-3-amino-4-methoxycyclohexyl)amino)-5′-chloro-[2,4′-bipyridin]-6-yl)amino)methyl)tetrahydro-2H-pyran-4-carbonitrile] | 20000 |
| COC[C@@H](C)N[C@H]1CC[C@H](Nc2cc(-c3cccc(NCCC#N)n3)c(Cl)cn2)CC1 [Compound 445, 3-((5′-chloro-2′-((trans-4-(((R)-1-methoxypropan-2-yl)amino)cyclohexyl)amino)-[2,4′-bipyridin]-6-yl)amino)propanenitrile] | 2100 |
| CO[C@H]1C[C@H](Nc2cc(-c3cccc(NCC4(C#N)CCOCC4)n3)c(Cl)cn2)CC[C@H]1N (single isomer, unassigned) [Compound 436] | < 500 |
| CNC(=O)CN[C@H]1CC[C@H](Nc2cc(-c3cccc(NCC4(C#N)CCOCC4)n3)c(Cl)cn2)CC1 [Compound 420, 2-((trans-4-((5′-chloro-6-(((4-cyanotetrahydro-2H-pyran-4-yl)methyl)amino)-[2,4′-bipyridin]-2′-yl)amino)cyclohexyl)amino)-N-methylacetamide] | < 500 |
| N[C@H]1CC[C@H](Nc2cc(-c3cccc(NCC4(O)CCOCC4)n3)c(Cl)cn2)CC1 [Compound 450, 4-(((2′-((trans-4-aminocyclohexyl)amino)-5′-chloro-[2,4′-bipyridin]-6-yl)amino)methyl)tetrahydro-2H-pyran-4-ol] | 1500 |
| C[C@@H]1CN([C@H]2CC[C@H](Nc3cc(-c4cccc(NCC5(C#N)CCOCC5)n4)c(Cl)cn3)CC2)C[C@H](C)O1 [Compound 426, 4-(((5′-chloro-2′-((trans-4-((2S,6R)-2,6-dimethylmorpholino)cyclohexyl)amino)-[2,4′-bipyridin]-6-yl)amino)methyl)tetrahydro-2H-pyran-4-carbonitrile] | ≤ 500 |
| CC(C)(C)OCCN[C@H]1CC[C@H](Nc2cc(-c3cccc(NCC4(C#N)CCOCC4)n3)c(Cl)cn2)CC1 [Compound 432, 4-(((2′-((trans-4-((2-(tert-butoxy)ethyl)amino)cyclohexyl)amino)-5′-chloro-[2,4′-bipyridin]-6-yl)amino)methyl)tetrahydro-2H-pyran-4-carbonitrile] | < 500 |

Second part, the compound after the results:

| IC50 [pM] | SMILES |
| --- | --- |
| ≤ 500 | COC[C@H](C)N[C@H]1CC[C@H](Nc2cc(-c3cccc(NCC4(C#N)CCOCC4)n3)c(F)cn2)CC1 [Compound 489, 4-(((5′-fluoro-2′-((trans-4-(((S)-1-methoxypropan-2-yl)amino)cyclohexyl)amino)-[2,4′-bipyridin]-6-yl)amino)methyl)tetrahydro-2H-pyran-4-carbonitrile] |
| 1300 | COCCN[C@H]1CC[C@H](Nc2cc(-c3cncc(OCC4(C#N)CCOCC4)n3)c(Cl)cn2)CC1 [Compound 510, 4-(((6-(5-chloro-2-((trans-4-((2-methoxyethyl)amino)cyclohexyl)amino)pyridin-4-yl)pyrazin-2-yl)oxy)methyl)tetrahydro-2H-pyran-4-carbonitrile] |
| 4800 | N#CC1(CNc2cccc(-c3cc(NC4CCNCC4)ncc3Cl)n2)CCOCC1 [Example 402] |
| < 500 | N#CC1(CNc2cccc(-c3cc(N[C@H]4CC[C@H](NC[C@@H]5CCCO5)CC4)ncc3Cl)n2)CCOCC1 [Compound 472, 4-(((5′-chloro-2′-((trans-4-((((S)-tetrahydrofuran-2-yl)methyl)amino)cyclohexyl)amino)-[2,4′-bipyridin]-6-yl)amino)methyl)tetrahydro-2H-pyran-4-carbonitrile] |
| < 500 | COCC(=O)NC[C@H]1CC[C@H](Nc2cc(-c3cccc(NCC4(C#N)CCOCC4)n3)c(Cl)cn2)CC1 [Compound 498, N-((trans-4-((5′-chloro-6-(((4-cyanotetrahydro-2H-pyran-4-yl)methyl)amino)-[2,4′-bipyridin]-2′-yl)amino)cyclohexyl)methyl)-2-methoxyacetamide] |
| 600 | CC(C)N[C@@H]1CC[C@@H](Nc2cc(-c3cccc(NCC4(C#N)CCOCC4)n3)c(Cl)cn2)C1 (relative stereo) [Example 408] |
| 600 | CN(C)C(=O)NC[C@H]1CC[C@H](Nc2cc(-c3cccc(NCC4(C#N)CCOCC4)n3)c(Cl)cn2)CC1 [Compound 499, 3-((trans-4-((5′-chloro-6-(((4-cyanotetrahydro-2H-pyran-4-yl)methyl)amino)-[2,4′-bipyridin]-2′-yl)amino)cyclohexyl)methyl)-1,1-dimethylurea] |
| < 500 | COC(=O)NC[C@H]1CC[C@H](Nc2cc(-c3cccc(NCC4(C#N)CCOCC4)n3)c(Cl)cn2)CC1 [Compound 497, methyl ((trans-4-((5′-chloro-6-(((4-cyanotetrahydro-2H-pyran-4-yl)methyl)amino)-[2,4′-bipyridin]-2′-yl)amino)cyclohexyl)methyl) carbamate] |
| 600 | N#CC1(COc2cncc(-c3cc(N[C@H]4CC[C@H](N)CC4)ncc3Cl)n2)CCOCC1 [Compound 511, 4-(((6-(2-((trans-4-aminocyclohexyl)amino)-5-chloropyridin-4-yl)pyrazin-2-yl)oxy)methyl)tetrahydro-2H-pyran-4-carbonitrile] |
| < 500 | N#CC1(CNc2cccc(-c3cc(N[C@H]4CC[C@H](NC[C@@H](O)C(F)(F)F)CC4)ncc3Cl)n2)CCOCC1 [Compound 491, 4-(((5′-chloro-2′-((trans-4-(((R)-3,3,3-trifluoro-2-hydroxypropyl)amino)cyclohexyl)amino)-[2,4′-bipyridin]-6-yl)amino)methyl)tetrahydro-2H-pyran-4-carbonitrile] |
| 600 | CO[C@H]1CCN([C@H]2CC[C@H](Nc3cc(-c4cccc(NCC5(C#N)CCOCC5)n4)c(Cl)cn3)CC2)C1 [Compound 475, 4-(((5′-chloro-2′-((trans-4-((S)-3-methoxypyrrolidin-1-yl)cyclohexyl)amino)-[2,4′-bipyridin]-6-yl)amino)methyl)tetrahydro-2H-pyran-4-carbonitrile] |
| < 500 | CS(=O)(=O)NC[C@H]1CC[C@H](Nc2cc(-c3cccc(NCC4(C#N)CCOCC4)n3)c(Cl)cn2)CC1 [Compound 494, N-((trans-4-((5′-chloro-6-(((4-cyanotetrahydro-2H-pyran-4-yl)methyl)amino)-[2,4′-bipyridin]-2′-yl)amino)cyclohexyl)methyl) methanesulfonamide] |
| < 500 | N#CC1(CNc2cccc(-c3cc(N[C@H]4CC[C@H](N)CC4)ncc3F)n2)CCOCC1 [Compound 479, 4-(((2′-((trans-4-aminocyclohexyl)amino)-5′-fluoro-[2,4′-bipyridin]-6-yl)amino)methyl)tetrahydro-2H-pyran-4-carbonitrile] |
| < 500 | COCCN[C@H]1CC[C@H](Nc2cc(-c3cccc(NCC4(C#N)CC4)n3)c(F)cn2)CC1 [Compound 488, 1-(((5′-fluoro-2′-((trans-4-((2-methoxyethyl)amino)cyclohexyl)amino)-[2,4′-bipyridin]-6-yl)amino)methyl)cyclopropane-carbonitrile] |

Source: patent publication US20130303507A1 (Novartis AG, priority 2011, published 2013)
